The source of these data is patent EP2921553B1, “Enzymatic reactor system” (Leibniz-Institut für Polymerforschung Dresden e.V., priority 2014, dated 2015).

The Km is the substrate concentration at which the rate is half of its maximum.

For data set [1], the target named is T1, S-Acetyl-coenzyme A synthetase (EC 6.2.1.1) from baker's yeast, Immobilized enzyme (PNIPAm-AEMA) (Saccharomyces cerevisiae, UniProt Q01574).
T1 construct: purchased Sigma-Aldrich (Germany)
T1 sequence (Q01574 1-713): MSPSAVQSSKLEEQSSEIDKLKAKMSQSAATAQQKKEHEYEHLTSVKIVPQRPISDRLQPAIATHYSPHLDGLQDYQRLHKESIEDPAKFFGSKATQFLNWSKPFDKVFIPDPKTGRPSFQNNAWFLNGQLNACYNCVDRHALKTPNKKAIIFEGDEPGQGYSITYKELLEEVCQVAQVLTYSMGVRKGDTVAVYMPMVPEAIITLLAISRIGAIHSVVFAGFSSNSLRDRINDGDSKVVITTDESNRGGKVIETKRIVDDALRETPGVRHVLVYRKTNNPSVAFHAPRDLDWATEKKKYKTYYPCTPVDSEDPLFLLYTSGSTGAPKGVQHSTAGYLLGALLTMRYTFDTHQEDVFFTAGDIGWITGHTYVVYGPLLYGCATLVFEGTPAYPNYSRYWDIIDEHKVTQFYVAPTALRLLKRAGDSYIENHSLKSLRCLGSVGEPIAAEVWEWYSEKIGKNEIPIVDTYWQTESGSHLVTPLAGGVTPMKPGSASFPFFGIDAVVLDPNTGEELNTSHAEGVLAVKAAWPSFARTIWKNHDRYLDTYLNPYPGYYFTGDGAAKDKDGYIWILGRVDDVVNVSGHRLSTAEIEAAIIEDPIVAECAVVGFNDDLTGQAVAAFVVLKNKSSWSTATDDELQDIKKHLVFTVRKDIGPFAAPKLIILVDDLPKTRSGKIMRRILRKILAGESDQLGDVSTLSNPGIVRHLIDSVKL
The data set can be described thus: Reaction kinetics of PNIPAm-AEMA-immobilized Acetyl CoA-synthetase for acetate (pyrophosphate-molybdate assay, Table 1). As to conditions: acetate substrate at 37°C; ATP 1 mM, CoA 0.5 mM; enzyme covalently immobilized on PNIPAm-AEMA microgel. It is filed as biochemical. As for the experimental part:
Acetyl CoA-synthetase was covalently immobilized to PNIPAm-AEMA core-shell microgel using carbodiimide chemistry in 0.1 M Borate buffer at pH 8. Inorganic phosphate present in commercial enzyme preparation (interferes with molybdate assay) was removed by filtration using 30 kDa centrifuge filter tubes (Millipore).
The activity of free acetyl CoA synthetase and their bioconjugates with PNIPAm-AEMA or microgel was studied in borate buffer (0.1 M, pH 8), in presence of 20 mM potassium acetate, 4 mM MgCl2, 4 mM glutathione, 1 mM ATP, and 500 µM coenzyme A. The reaction was terminated by addition of acidic molybdate reagent. The pyrophosphate-molybdate complex formed was further reduced by addition of mercaptoethanol and Eikonogen reagent. The obtained coloured product was quantified by measuring the absorption at 590 nm and pyrophosphate concentration was determined (ε = 2.7 x 10^4 M^-1 cm^-1). […]
(§1) Assuming Michaelis-Menten kinetics for Acetyl CoA-synthetase by the following equations: V = (Vmax [S])/(Km + [S]) [formula] where V is the rate of the reaction, [S] is the concentration of the substrate, Km is the apparent constant, and Vmax is the maximum of reaction velocity. The values for Km and Vmax, were estimated with the help of a Lineweaver-Burk plot for the Michaelis-Menten equation expressed as follows: (1)/(V) = (Km)/(Vmax)[…](1)/([S]) + (1)/(Vmax) [formula] […]

For data set [2], the target named is T2, S-Acetyl-coenzyme A synthetase (EC 6.2.1.1) from baker's yeast, free enzyme (Saccharomyces cerevisiae, UniProt Q01574).
T2 construct: purchased Sigma-Aldrich (Germany)
T2 sequence (Q01574 1-713): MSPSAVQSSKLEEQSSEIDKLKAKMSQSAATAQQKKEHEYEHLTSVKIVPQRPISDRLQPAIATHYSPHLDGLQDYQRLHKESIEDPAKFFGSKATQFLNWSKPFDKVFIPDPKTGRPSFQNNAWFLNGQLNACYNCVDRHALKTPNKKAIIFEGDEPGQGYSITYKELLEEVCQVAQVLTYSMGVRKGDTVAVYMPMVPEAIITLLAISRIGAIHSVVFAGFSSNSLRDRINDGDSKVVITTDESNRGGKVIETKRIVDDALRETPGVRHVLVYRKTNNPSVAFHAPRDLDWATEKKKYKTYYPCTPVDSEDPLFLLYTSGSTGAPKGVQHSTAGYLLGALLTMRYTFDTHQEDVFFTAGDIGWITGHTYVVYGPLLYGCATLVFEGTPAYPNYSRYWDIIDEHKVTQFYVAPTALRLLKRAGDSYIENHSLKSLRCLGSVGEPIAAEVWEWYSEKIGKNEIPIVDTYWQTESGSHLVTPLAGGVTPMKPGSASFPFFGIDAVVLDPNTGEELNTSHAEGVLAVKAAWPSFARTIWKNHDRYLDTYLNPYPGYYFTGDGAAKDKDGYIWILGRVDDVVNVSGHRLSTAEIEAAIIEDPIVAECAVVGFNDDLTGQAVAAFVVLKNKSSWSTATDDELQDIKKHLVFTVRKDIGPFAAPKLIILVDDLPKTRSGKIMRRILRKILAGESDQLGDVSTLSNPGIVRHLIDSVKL
The data set can be described thus: Reaction kinetics of free Acetyl CoA-synthetase for acetate (citrate synthase/malate dehydrogenase coupled assay, Table 2). It is filed as biochemical. As to conditions: acetate substrate at 37°C, ATP 1 mM, CoA 0.5 mM, Lineweaver-Burk plot. As to the method:
The activity of free and immobilized Acs was determined spectrophotometrically by following acetyl CoA synthesis at 340 nm wavelength by coupling to Citrate synthase (CS) and malate dehydrogenase (MDH) assay.
The assay medium composition for enzyme activity consists of 20 mM potassium acetate, 4 mM MgCl, 4 mM glutathione, 1 mM ATP, 500 µM co-enzyme A, 1 mM NAD and 4 mM malate in 100mM Tris Cl buffer pH 8. The acetyl CoA synthesized was correlated to the concentration of NADH formed in a coupled assay using […]. One unit of enzyme activity was defined as the amount of enzyme which is required to form 1 µmol of NADH per min at pH 8 and 37°C.
The reaction kinetics of free and immobilized enzymes was studied at various concentrations of acetate (5 mM - 0.3 mM) as a substrate and keeping concentrations of ATP and CoA constant at 1 mM and 0.5 mM, respectively. […]
as §1

The target of data set [3] is T3, S-Acetyl-coenzyme A synthetase (EC 6.2.1.1) from baker's yeast, Immobilized enzyme (PEI-PNIPAm) (Saccharomyces cerevisiae, UniProt Q01574).
T3 construct: purchased Sigma-Aldrich (Germany)
T3 sequence (Q01574 1-713): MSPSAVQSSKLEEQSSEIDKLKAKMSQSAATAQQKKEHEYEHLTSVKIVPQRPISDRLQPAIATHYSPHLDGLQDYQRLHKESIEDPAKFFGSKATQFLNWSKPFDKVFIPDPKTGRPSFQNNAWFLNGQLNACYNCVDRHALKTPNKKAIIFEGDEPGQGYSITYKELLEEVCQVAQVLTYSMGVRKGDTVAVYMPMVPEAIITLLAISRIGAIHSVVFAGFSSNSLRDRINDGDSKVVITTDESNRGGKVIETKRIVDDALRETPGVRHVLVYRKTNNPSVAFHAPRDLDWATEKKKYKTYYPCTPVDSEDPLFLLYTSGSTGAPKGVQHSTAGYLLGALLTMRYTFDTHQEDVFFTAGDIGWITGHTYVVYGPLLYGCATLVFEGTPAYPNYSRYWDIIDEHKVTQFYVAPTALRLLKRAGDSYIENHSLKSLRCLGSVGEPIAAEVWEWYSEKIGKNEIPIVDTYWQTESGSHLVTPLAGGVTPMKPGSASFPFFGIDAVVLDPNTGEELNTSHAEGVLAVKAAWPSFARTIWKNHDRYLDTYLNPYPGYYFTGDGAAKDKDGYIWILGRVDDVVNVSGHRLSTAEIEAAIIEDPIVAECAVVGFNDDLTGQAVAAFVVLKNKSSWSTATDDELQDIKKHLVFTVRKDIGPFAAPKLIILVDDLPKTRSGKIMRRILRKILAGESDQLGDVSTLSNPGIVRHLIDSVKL
The experiment in a line: Reaction kinetics of PEI-PNIPAm-immobilized Acetyl CoA-synthetase for acetate (citrate synthase/malate dehydrogenase coupled assay, Table 2). Format: biochemical. As to conditions: acetate substrate at 37°C; ATP 1 mM, CoA 0.5 mM; enzyme adsorbed on PEI-PNIPAm microgel. As for the experimental part:
The immobilization of Acetyl CoA-synthetase on PEI-PNIPAm microgel was achieved via adsorption in 0.1 M Tris-CI buffer at pH 8 for 6 h at 4°C. The conjugate was obtained by centrifugation at 12,000 rpm for 15 min at 25°C and subsequently washed with the same buffer to remove non adsorbed enzymes. Using Micro BCA (for protein concentrations lower than 20 µg/mL) assay kits, the amounts of adsorbed enzyme loaded to the microgel was determined by subtracting the residual protein content in the supernatant from the initial protein content. The enzyme and conjugate were stored in 0.1 M Borate buffer containing 1 mM glutathione and 1 mM magnesium chloride pH 8 for further use.
The activity of free and immobilized Acs was determined spectrophotometrically by following acetyl CoA synthesis at 340 nm wavelength by coupling to Citrate synthase (CS) and malate dehydrogenase (MDH) assay. […]
as §1

Data set [4] deals with T2, S-Acetyl-coenzyme A synthetase (EC 6.2.1.1) from baker's yeast, free enzyme. The experiment in a line: Reaction kinetics of free Acetyl CoA-synthetase for acetate (pyrophosphate-molybdate assay, Table 1). It is filed as biochemical. The following applies: acetate substrate at 37°C, ATP 1 mM, CoA 0.5 mM, Lineweaver-Burk plot. As for the experimental part: (§2) The activity of free acetyl CoA synthetase and their bioconjugates with PNIPAm-AEMA or microgel was studied in borate buffer (0.1 M, pH 8), in presence of 20 mM potassium acetate, 4 mM MgCl2, 4 mM glutathione, 1 mM ATP, and 500 µM coenzyme A. The reaction was terminated by addition of acidic molybdate reagent. The pyrophosphate-molybdate complex formed was further reduced by addition of mercaptoethanol and Eikonogen reagent. The obtained coloured product was quantified by measuring the absorption at 590 nm and pyrophosphate concentration was determined (ε = 2.7 x 10^4 M^-1 cm^-1).
(§3) One unit of enzyme activity was defined as the amount of enzyme required to form 1 µmol pyrophosphate per min at pH 8 and 37°C. Bradford micro assay with a sensitivity of 1-10 µg/mL was used to determine protein concentration using bovine serum albumin as the standard protein. […]
as §1

Substrate in data set [5]: CC(=O)O
The data set is described as above. Format: biochemical, Saccharomyces cerevisiae. The following applies: other: acetate substrate at 37°C, acetate 5 mM - 0.3 mM, ATP 1 mM, CoA 0.5 mM, Lineweaver-Burk plot, free enzyme, pH 8.0. As for the experimental part:
as §2, §3, §1

Turning to `CC(=O)O` [acetate], the Vmax in data set [1] was 5.6 x10^-3± 0.1x10^-3 U/min; in data set [2], 16x10^-3 ± 1 x10^-3 U/min; in data set [3], 44 x10^-3± 2 x10^-3 U/min; in data set [4], 8.5x10^-3 ± 0.4x10^-3 U/min.

B1: S-Acetyl-coenzyme A synthetase (EC 6.2.1.1) from baker's yeast, free enzyme (Saccharomyces cerevisiae S288C) (protein)
chain: MSPSAVQSSKLEEQSSEIDKLKAKMSQSAATAQQKKEHEYEHLTSVKIVPQRPISDRLQPAIATHYSPHLDGLQDYQRLHKESIEDPAKFFGSKATQFLNWSKPFDKVFIPDPKTGRPSFQNNAWFLNGQLNACYNCVDRHALKTPNKKAIIFEGDEPGQGYSITYKELLEEVCQVAQVLTYSMGVRKGDTVAVYMPMVPEAIITLLAISRIGAIHSVVFAGFSSNSLRDRINDGDSKVVITTDESNRGGKVIETKRIVDDALRETPGVRHVLVYRKTNNPSVAFHAPRDLDWATEKKKYKTYYPCTPVDSEDPLFLLYTSGSTGAPKGVQHSTAGYLLGALLTMRYTFDTHQEDVFFTAGDIGWITGHTYVVYGPLLYGCATLVFEGTPAYPNYSRYWDIIDEHKVTQFYVAPTALRLLKRAGDSYIENHSLKSLRCLGSVGEPIAAEVWEWYSEKIGKNEIPIVDTYWQTESGSHLVTPLAGGVTPMKPGSASFPFFGIDAVVLDPNTGEELNTSHAEGVLAVKAAWPSFARTIWKNHDRYLDTYLNPYPGYYFTGDGAAKDKDGYIWILGRVDDVVNVSGHRLSTAEIEAAIIEDPIVAECAVVGFNDDLTGQAVAAFVVLKNKSSWSTATDDELQDIKKHLVFTVRKDIGPFAAPKLIILVDDLPKTRSGKIMRRILRKILAGESDQLGDVSTLSNPGIVRHLIDSVKL
notes: purchased Sigma-Aldrich (Germany)
On to B1, for which the Km in data set [5] was determined as 170 ± 30 µM.
